Data as given in the supplement of paper PMC11424490.

Key:
NCI-H2122 = experiment: combination cScore with adagrasib (Bliss gap around IC50) (%PoC); higher = stronger additive effect
How it was run: (§1)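 NCI-H2122, NCI-H358 and SW837 cells (500 or 800 per well, 384-well plates) were dosed in concentration matrices after 24 h and grown 72 h, or 144 h for SW837. CellTiter-Glo luminescence was normalised to vehicle wells as percent of control and fitted with four-parameter curves. The score averages the Bliss-independence gap (expected minus measured viability) over a field around both monotherapy IC50s, or at the top concentrations when no IC50 was reached.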

SW837 = experiment: as above
How it was run: as §1

## COc1cc2nccc(Oc3ccc(NC(=O)C4(C(=O)Nc5ccc(F)cc5)CC4)cc3)c2cc1OC [XL-184] + C=C(F)C(=O)N1CCN(c2nc(OC[C@@H]3CCCN3C)nc3c2CCN(c2cccc4cccc(Cl)c24)C3)C[C@@H]1CC#N [adagrasib]
NCI-H2122
  combination cScore with adagrasib: 4.53
SW837
  combination cScore with adagrasib: 9.25

## C=C(c1ccc(C(=O)O)cc1)c1cc2c(cc1C)C(C)(C)CCC2(C)C [Bexarotene] + C=C(F)C(=O)N1CCN(c2nc(OC[C@@H]3CCCN3C)nc3c2CCN(c2cccc4cccc(Cl)c24)C3)C[C@@H]1CC#N [adagrasib]
NCI-H2122
  combination cScore with adagrasib: -4.01
SW837
  combination cScore with adagrasib: 0.535

## CC(=O)Nc1cccc(-n2c(=O)n(C3CC3)c(=O)c3c(Nc4ccc(I)cc4F)n(C)c(=O)c(C)c32)c1 [Trametinib] + C=C(F)C(=O)N1CCN(c2nc(OC[C@@H]3CCCN3C)nc3c2CCN(c2cccc4cccc(Cl)c24)C3)C[C@@H]1CC#N [adagrasib]
NCI-H2122
  combination cScore with adagrasib: 6.74
SW837
  combination cScore with adagrasib: 13.6

## Cc1ccc(NC(=O)c2ccc(CN3CCN(C)CC3)cc2)cc1Nc1nccc(-c2cccnc2)n1 [Imatinib] + C=C(F)C(=O)N1CCN(c2nc(OC[C@@H]3CCCN3C)nc3c2CCN(c2cccc4cccc(Cl)c24)C3)C[C@@H]1CC#N [adagrasib]
NCI-H2122
  combination cScore with adagrasib: -0.92
SW837
  combination cScore with adagrasib: -2.11

## CN(NC(=O)CC(=O)NN(C)C(=S)c1ccccc1)C(=S)c1ccccc1 [Elesclomol] + C=C(F)C(=O)N1CCN(c2nc(OC[C@@H]3CCCN3C)nc3c2CCN(c2cccc4cccc(Cl)c24)C3)C[C@@H]1CC#N [adagrasib]
NCI-H2122
  combination cScore with adagrasib: 2.19
SW837
  combination cScore with adagrasib: 6.34

## C[C@]12CC[C@@H]3c4ccc(O)cc4C[C@@H](CCCCCCCCC[S+]([O-])CCCC(F)(F)C(F)(F)F)[C@H]3[C@@H]1CC[C@@H]2O (some centres not stated) [Fulvestrant] + C=C(F)C(=O)N1CCN(c2nc(OC[C@@H]3CCCN3C)nc3c2CCN(c2cccc4cccc(Cl)c24)C3)C[C@@H]1CC#N [adagrasib]
NCI-H2122
  combination cScore with adagrasib: 3.46
SW837
  combination cScore with adagrasib: 2.82

## c1ccc(-c2nn3c(c2-c2ccnc4cc(OCCN5CCOCC5)ccc24)CCC3)nc1 + C=C(F)C(=O)N1CCN(c2nc(OC[C@@H]3CCCN3C)nc3c2CCN(c2cccc4cccc(Cl)c24)C3)C[C@@H]1CC#N [adagrasib]
NCI-H2122
  combination cScore with adagrasib: -21.2
SW837
  combination cScore with adagrasib: 0.67

## CN(Cc1cnc2nc(N)nc(N)c2n1)c1ccc(C(=O)N[C@@H](CCC(=O)O)C(=O)O)cc1 [Methotrexate] + C=C(F)C(=O)N1CCN(c2nc(OC[C@@H]3CCCN3C)nc3c2CCN(c2cccc4cccc(Cl)c24)C3)C[C@@H]1CC#N [adagrasib]
NCI-H2122
  combination cScore with adagrasib: -2.65
SW837
  combination cScore with adagrasib: -8.99

## NC(=O)Nc1cc(-c2cccc(F)c2)sc1C(=O)N[C@H]1CCCNC1 [AZD-7762] + C=C(F)C(=O)N1CCN(c2nc(OC[C@@H]3CCCN3C)nc3c2CCN(c2cccc4cccc(Cl)c24)C3)C[C@@H]1CC#N [adagrasib]
NCI-H2122
  combination cScore with adagrasib: -0.23
SW837
  combination cScore with adagrasib: -2.72

## CO[C@@]12[C@H](COC(N)=O)C3=C(C(=O)C(C)=C(N)C3=O)N1C[C@@H]1N[C@@H]12 [Mitomycin C] + C=C(F)C(=O)N1CCN(c2nc(OC[C@@H]3CCCN3C)nc3c2CCN(c2cccc4cccc(Cl)c24)C3)C[C@@H]1CC#N [adagrasib]
NCI-H2122
  combination cScore with adagrasib: 0.77
SW837
  combination cScore with adagrasib: -3.24

## CC[C@]1(O)C[C@@H]2CN(CCc3c([nH]c4ccccc34)[C@@](C(=O)OC)(c3cc4c(cc3OC)N(C)[C@H]3[C@@](O)(C(=O)OC)[C@H](OC(C)=O)[C@]5(CC)C=CCN6CC[C@]43[C@@H]65)C2)C1 [Vinblastine] + C=C(F)C(=O)N1CCN(c2nc(OC[C@@H]3CCCN3C)nc3c2CCN(c2cccc4cccc(Cl)c24)C3)C[C@@H]1CC#N [adagrasib]
NCI-H2122
  combination cScore with adagrasib: -3.66
SW837
  combination cScore with adagrasib: 4.5
